Assays:
1,3-beta-glucan synthase [1] = biological target: 1,3-beta-glucan synthase (Aspergillus, UniProt Q4WLT4); assay: (§1) Glucan Synthase Assay: The glucan synthase assay follows the incorporation of tritiated UDP-glucose into acid insoluble β-glucan as catalysed by the glucan synthase activity present in membrane preparations from Candida albicans and Aspergillus fumigatus. UDP-[3H]-glucose (ca 0.01 μCi) is added to 100 μl assay buffer (50 mM Tris-Cl, pH8.0, 8% glycerol, 1 mM EDTA, 1.5 mM KF, 1 mM DTT, 20 μM GTPγS, 600 μM UDP-glucose) and the reaction initiated by the addition of 2.5 μl of enzyme preparation. After incubation at 30°C. for 120 minutes, 10 μl of 30 mg/ml BSA is added with mixing and the reaction is terminated with 110 μl ice-cold 20% TCA. The precipitate is collected on a GF/B filter plate and washed three times with 200 μl water. Once dry, 200 μl of Microscint20 is added to each well and the plate is read on a Top-count scintillation counter.
1,3-beta-glucan synthase [2] = biological target: 1,3-beta-glucan synthase (Candida, UniProt O13428); assay: as §1
Sequence of 1,3-beta-glucan synthase (Candida, UniProt O13428) (O13428 whole entry): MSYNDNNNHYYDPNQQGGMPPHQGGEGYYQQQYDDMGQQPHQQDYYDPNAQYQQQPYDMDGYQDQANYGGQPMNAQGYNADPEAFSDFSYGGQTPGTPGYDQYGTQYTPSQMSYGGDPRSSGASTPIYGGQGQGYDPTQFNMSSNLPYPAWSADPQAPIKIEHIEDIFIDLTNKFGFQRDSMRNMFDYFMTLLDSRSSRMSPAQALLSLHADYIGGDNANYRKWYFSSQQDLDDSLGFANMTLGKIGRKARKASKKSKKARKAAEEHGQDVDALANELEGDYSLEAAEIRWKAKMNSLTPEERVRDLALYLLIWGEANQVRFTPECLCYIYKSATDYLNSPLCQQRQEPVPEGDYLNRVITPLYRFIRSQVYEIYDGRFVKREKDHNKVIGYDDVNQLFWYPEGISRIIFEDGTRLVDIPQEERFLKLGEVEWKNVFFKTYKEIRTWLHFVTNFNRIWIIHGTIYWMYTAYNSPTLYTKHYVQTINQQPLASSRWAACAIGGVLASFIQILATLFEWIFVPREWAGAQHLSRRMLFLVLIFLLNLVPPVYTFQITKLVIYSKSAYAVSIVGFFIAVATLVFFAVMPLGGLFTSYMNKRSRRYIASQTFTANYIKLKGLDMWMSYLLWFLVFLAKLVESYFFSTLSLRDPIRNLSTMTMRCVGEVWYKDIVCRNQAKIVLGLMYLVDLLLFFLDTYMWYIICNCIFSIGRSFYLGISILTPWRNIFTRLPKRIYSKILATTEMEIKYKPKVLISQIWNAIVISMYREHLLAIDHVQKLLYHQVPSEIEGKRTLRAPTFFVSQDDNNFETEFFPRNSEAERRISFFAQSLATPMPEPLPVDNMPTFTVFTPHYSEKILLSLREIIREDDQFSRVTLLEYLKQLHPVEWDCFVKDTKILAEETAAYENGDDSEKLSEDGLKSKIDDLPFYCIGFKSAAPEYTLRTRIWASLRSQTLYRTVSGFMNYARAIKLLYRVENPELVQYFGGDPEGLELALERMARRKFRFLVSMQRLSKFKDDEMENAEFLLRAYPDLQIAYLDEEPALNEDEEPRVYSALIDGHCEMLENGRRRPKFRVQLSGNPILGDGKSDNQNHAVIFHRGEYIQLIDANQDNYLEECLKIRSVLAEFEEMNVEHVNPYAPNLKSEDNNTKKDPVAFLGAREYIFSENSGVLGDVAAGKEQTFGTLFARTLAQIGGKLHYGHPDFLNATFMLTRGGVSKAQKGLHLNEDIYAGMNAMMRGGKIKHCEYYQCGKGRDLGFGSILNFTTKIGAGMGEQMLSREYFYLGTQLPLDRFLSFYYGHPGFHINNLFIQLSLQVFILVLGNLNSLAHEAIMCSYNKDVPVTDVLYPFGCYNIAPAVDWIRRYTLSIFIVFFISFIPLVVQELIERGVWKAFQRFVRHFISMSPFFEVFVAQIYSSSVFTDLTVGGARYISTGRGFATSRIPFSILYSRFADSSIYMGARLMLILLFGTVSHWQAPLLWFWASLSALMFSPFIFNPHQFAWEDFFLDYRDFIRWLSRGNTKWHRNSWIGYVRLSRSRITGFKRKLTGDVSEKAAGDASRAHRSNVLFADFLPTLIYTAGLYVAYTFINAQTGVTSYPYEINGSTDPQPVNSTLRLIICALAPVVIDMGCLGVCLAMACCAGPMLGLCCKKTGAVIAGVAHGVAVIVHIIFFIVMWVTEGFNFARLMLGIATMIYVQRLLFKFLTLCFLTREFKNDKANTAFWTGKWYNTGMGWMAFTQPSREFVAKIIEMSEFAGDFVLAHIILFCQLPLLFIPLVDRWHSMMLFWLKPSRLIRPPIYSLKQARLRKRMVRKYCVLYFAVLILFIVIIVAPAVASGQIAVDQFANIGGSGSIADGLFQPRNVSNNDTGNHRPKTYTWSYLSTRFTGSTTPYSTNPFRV

Sequence of 1,3-beta-glucan synthase (Aspergillus, UniProt Q4WLT4) (Q4WLT4 whole entry): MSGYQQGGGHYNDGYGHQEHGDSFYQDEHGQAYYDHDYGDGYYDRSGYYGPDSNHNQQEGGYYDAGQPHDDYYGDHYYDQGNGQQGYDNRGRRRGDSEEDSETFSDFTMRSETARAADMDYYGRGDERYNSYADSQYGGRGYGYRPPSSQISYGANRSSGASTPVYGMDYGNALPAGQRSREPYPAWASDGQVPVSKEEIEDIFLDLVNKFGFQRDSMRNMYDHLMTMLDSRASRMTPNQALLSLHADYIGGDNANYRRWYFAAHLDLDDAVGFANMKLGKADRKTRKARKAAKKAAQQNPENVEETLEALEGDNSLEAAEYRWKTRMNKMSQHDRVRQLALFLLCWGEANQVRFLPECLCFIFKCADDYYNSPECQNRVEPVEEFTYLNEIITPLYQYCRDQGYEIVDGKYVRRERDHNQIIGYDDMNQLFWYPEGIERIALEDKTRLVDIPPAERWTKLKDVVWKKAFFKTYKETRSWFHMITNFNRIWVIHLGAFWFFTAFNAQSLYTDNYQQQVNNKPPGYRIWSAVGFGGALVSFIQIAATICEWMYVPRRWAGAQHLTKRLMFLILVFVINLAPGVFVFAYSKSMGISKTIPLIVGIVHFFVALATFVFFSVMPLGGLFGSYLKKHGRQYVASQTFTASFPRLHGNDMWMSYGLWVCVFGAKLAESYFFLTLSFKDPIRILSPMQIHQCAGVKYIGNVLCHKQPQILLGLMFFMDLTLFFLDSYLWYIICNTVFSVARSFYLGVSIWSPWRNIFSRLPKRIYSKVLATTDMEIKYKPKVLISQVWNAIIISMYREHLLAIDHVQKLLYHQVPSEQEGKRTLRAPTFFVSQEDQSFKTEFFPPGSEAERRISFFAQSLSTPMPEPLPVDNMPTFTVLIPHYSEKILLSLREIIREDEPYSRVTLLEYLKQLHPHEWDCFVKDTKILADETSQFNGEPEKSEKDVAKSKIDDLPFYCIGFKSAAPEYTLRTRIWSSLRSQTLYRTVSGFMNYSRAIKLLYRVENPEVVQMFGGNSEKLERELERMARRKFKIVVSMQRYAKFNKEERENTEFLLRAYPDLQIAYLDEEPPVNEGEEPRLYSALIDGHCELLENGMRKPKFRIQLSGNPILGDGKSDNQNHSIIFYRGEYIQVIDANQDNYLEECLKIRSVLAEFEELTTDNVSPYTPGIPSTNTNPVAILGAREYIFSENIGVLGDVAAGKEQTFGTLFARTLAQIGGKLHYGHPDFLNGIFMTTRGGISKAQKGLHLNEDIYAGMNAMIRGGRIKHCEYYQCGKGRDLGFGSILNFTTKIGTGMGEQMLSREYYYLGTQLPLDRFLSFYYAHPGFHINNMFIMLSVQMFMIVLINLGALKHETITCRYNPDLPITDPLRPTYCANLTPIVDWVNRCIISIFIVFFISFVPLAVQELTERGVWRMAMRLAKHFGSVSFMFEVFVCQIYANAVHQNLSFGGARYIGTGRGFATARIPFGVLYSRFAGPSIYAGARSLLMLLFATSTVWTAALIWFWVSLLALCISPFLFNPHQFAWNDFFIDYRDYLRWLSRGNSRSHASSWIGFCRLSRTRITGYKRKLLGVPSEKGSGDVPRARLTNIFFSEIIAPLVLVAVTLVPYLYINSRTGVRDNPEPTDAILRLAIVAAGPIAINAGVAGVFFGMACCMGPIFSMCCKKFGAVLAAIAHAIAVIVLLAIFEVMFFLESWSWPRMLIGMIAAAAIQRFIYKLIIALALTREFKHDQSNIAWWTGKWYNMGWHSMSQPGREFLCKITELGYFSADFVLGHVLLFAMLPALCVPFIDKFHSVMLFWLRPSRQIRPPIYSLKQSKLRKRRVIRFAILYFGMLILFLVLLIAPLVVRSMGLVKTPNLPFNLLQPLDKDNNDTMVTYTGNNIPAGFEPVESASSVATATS

N[C@H]1CCN(C(=O)CN(CC(=O)NCc2cccc(Cl)c2)c2ccc(Oc3ccccc3)cc2)C1
IC50 (1,3-beta-glucan synthase [1]): 5.6 µM
IC50 (1,3-beta-glucan synthase [2]): 8 µM
